For the experiment, the target named is T1, KCNQ 2/3 channels (Homo sapiens, UniProt O43525+O43526).
T1 construct: expressed in transfected cells; host or cells: HEK293
In words: KCNQ 2/3 channel activation, thallium flux FLIPR assay (BTC-AM dye). In kind it is cell-based. To be noted: for Emax: HEK293, maximum response relative to the response of 10 μM retigabine (set at 100%), read-out: % MAX; for EC50: HEK293 cells stably expressing human KCNQ2 and KCNQ3 subunits, thallium-induced fluorescence, 4 min compound incubation. The method in brief: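 HEK293 cells stably expressing human KCNQ2/KCNQ3 were loaded with BTC-AM (3 μg/mL, 2 h, RT) and preincubated with compound for 4 min in pH 7.3 gluconate buffer containing 0.1 mM ouabain. Flux was triggered by 6 mM TlNO3/10 mM K2SO4 and read for 3 min; EC50 came from summed responses over basal, with maximum relative to 10 μM retigabine (100%).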

Results on 31 molecules are retold here after patent publication US8859549B2, “Potassium channel modulators” (AbbVie, Inc., priority 2011, dated 2014).

Turning to `O=C(Cc1ccccc1Br)Nn1nc(N2CCOCC2)c2ccccc2c1=O` [Example 153, 2-(2-bromophenyl)-N-[4-(morpholin-4-yl)-1-oxophthalazin-2(1H)-yl]acetamide], the Emax (HEK293 KCNQ2/KCNQ3 cells) was 1.17%.

The term EC50 denotes the midpoint of the concentration-response curve. Low values mean higher potency in that assay, high ones lower potency in that assay. Take `O=C(CC1CC2CCC1C2)Nn1nc(Cc2cc[n+]([O-])cc2)c2ccccc2c1=O` (racemic) [Example 100, (±)-2-[(exo)-bicyclo[2.2.1]hept-2-yl]-N-{4-[(1-oxidopyridin-4-yl)methyl]-1-oxophthalazin-2(1H)-yl}acetamide]: a half-maximal effect (EC50) was put at 916 nM. In addition, the Emax (HEK293 KCNQ2/KCNQ3 cells) amounted to 53.4%.

`O=C(CC1CC2CCC1C2)Nn1nc(C(=O)O)c2ccccc2c1=O` (racemic) [Example 55, (±)-3-{[(exo)-bicyclo[2.2.1]hept-2-ylacetyl]amino}-4-oxo-3,4-dihydrophthalazine-1-carboxylic acid] showed a concentration giving a half-maximal response (EC50) of 1370 nM. Also, the Emax (HEK293 KCNQ2/KCNQ3 cells) worked out at 149%.

For `COC(=O)N[C@H](C(=O)NCc1nn(NC(=O)Cc2ccc(Cl)cc2)c(=O)c2ccccc12)C(C)C` [Example 183, methyl[(2S)-1-{[(3-{[(4-chlorophenyl)acetyl]amino}-4-oxo-3,4-dihydrophthalazin-1-yl)methyl]amino}-3-methyl-1-oxobutan-2-yl]carbamate], the Emax (HEK293 KCNQ2/KCNQ3 cells) was found to be 5.96%.

Regarding `O=C(CC1CCOC1)Nn1nc(-c2ccnc(Cl)c2)c2ccccc2c1=O` (stereo not shown) [Example 67, N-[4-(2-chloropyridin-4-yl)-1-oxophthalazin-2(1H)-yl]-2-(tetrahydrofuran-3-yl)acetamide], the Emax (HEK293 KCNQ2/KCNQ3 cells) was 6.78%.

Turning to `O=C(Cc1ccc(Cl)cc1)Nn1nc(Sc2ccccc2)c2ccccc2c1=O` [Example 58, 2-(4-chlorophenyl)-N-[1-oxo-4-(phenylsulfanyl)phthalazin-2(1H)-yl]acetamide], the EC50 was determined as 82.6 nM. The Emax (HEK293 KCNQ2/KCNQ3 cells) was found to be 120%.

For the molecule `CC(C)(C)OC(=O)NC(c1ccccc1)c1nn(NC(=O)CC2CC3CCC2C3)c(=O)c2ccccc12` (racemic) [Example 179, tert-butyl(±)-[(3-{[(exo)-bicyclo[2.2.1]hept-2-ylacetyl]amino}-4-oxo-3,4-dihydrophthalazin-1-yl)(phenyl)methyl]carbamate], the EC50 came to 267 nM. For the same molecule, the Emax (HEK293 KCNQ2/KCNQ3 cells) stood at 185%.

Consider `NCc1nn(NC(=O)Cc2ccc(Cl)cc2)c(=O)c2ccccc12` [Example 42, N-[4-(aminomethyl)-1-oxophthalazin-2(1H)-yl]-2-(4-chlorophenyl)acetamide], for which the Emax (HEK293 KCNQ2/KCNQ3 cells) is 8.66%.

`CC(C)(CC(=O)Nn1nc(S(=O)(=O)c2ccc(C#N)cc2)c2ccccc2c1=O)c1ccccc1` [Example 225, N-{4-[(4-cyanophenyl)sulfonyl]-1-oxophthalazin-2(1H)-yl}-3-methyl-3-phenylbutanamide] had an EC50 of 146 nM. Moreover, the Emax (HEK293 KCNQ2/KCNQ3 cells) is 37.3%.

For the molecule `O=C(CC1CC2CCC1C2)Nn1nc(Oc2ccccc2)c2ccccc2c1=O` (racemic) [Example 39, (±)-2-[(exo)-bicyclo[2.2.1]hept-2-yl]-N-(1-oxo-4-phenoxyphthalazin-2(1H)-yl)acetamide], the EC50 came to 9.05 nM. Further, the Emax (HEK293 KCNQ2/KCNQ3 cells) is 150%.

Consider `Nc1ccc(Sc2nn(NC(=O)Cc3ccc(Cl)cc3)c(=O)c3ccccc23)cc1` [Example 105, N-{4-[(4-aminophenyl)sulfanyl]-1-oxophthalazin-2(1H)-yl}-2-(4-chlorophenyl)acetamide], for which a half-maximal response (EC50) required 889 nM. For the same molecule, the Emax (HEK293 KCNQ2/KCNQ3 cells) came out at 120%.

As for `O=C(Cc1cc(F)cc(F)c1)Nn1nc(Sc2ccc(Br)cc2)c2ccccc2c1=O` [Example 197, N-{4-[(4-bromophenyl)sulfanyl]-1-oxophthalazin-2(1H)-yl}-2-(3,5-difluorophenyl)acetamide], the response was half-maximal at 49 nM (EC50). Under “HEK293 KCNQ2/KCNQ3 cells”, the Emax came to 120%.

For the molecule `O=C(Cc1cc(F)cc(F)c1)Nn1nc(-c2cccs2)c2ccccc2c1=O` [Example 10, 2-(3,5-difluorophenyl)-N-[1-oxo-4-(thiophen-2-yl)phthalazin-2(1H)-yl]acetamide], the EC50 was determined as 161 nM. Further, the Emax (HEK293 KCNQ2/KCNQ3 cells) stood at 137%.

With `CC(C)(C)OC(=O)Nc1ccc(S(=O)(=O)c2nn(NC(=O)Cc3ccc(Cl)cc3)c(=O)c3ccccc23)cc1` [Example 106, tert-butyl{4-[(3-{[(4-chlorophenyl)acetyl]amino}-4-oxo-3,4-dihydrophthalazin-1-yl)sulfonyl]phenyl}carbamate], the EC50 was 2010 nM. The Emax (HEK293 KCNQ2/KCNQ3 cells) worked out at 46.2%.

For the molecule `O=C(CC1CC2CCC1C2)Nn1nc(C(O)c2ccccc2)c2ccccc2c1=O` (racemic) [Example 102, (±)-2-[(exo)-bicyclo[2.2.1]hept-2-yl]-N-{4-[hydroxy(phenyl)methyl]-1-oxophthalazin-2(1H)-yl}acetamide], the concentration for a half-maximal effect (EC50) was found to be 894 nM. Besides, the Emax (HEK293 KCNQ2/KCNQ3 cells) amounted to 212%.

The molecule `O=C(Cc1cc(F)cc(F)c1)Nn1nc(Sc2ccccc2)c2ccccc2c1=O` [Example 57, 2-(3,5-difluorophenyl)-N-[1-oxo-4-(phenylsulfanyl)phthalazin-2(1H)-yl]acetamide] returned an EC50 of 38.1 nM. In addition, the Emax (HEK293 KCNQ2/KCNQ3 cells) was found to be 116%.

Consider `COc1ccc(-c2nn(NC(=O)CC3CC4CCC3C4)c(=O)c3ccccc23)cn1` (racemic) [Example 26, (±)-2-[(exo)-bicyclo[2.2.1]hept-2-yl]-N-[4-(6-methoxypyridin-3-yl)-1-oxophthalazin-2(1H)-yl]acetamide], for which it took 306 nM to reach a half-maximal effect (EC50). In addition, under “HEK293 KCNQ2/KCNQ3 cells”, the Emax worked out at 137%.

With `O=C(Cc1ccc(Oc2ccccc2)cc1)Nn1nc(N2CCOCC2)c2ccccc2c1=O` [Example 163, N-[4-(morpholin-4-yl)-1-oxophthalazin-2(1H)-yl]-2-(4-phenoxyphenyl)acetamide], the Emax (HEK293 KCNQ2/KCNQ3 cells) is 30.8%.

Regarding `O=C(Cc1ccc(Cl)cc1)Nn1nc(-c2ccnc(C(F)(F)F)c2)c2ccccc2c1=O` [Example 77, 2-(4-chlorophenyl)-N-{1-oxo-4-[2-(trifluoromethyl)pyridin-4-yl]phthalazin-2(1H)-yl}acetamide], the EC50 amounted to 458 nM. Moreover, the Emax (HEK293 KCNQ2/KCNQ3 cells) amounted to 74.9%.

The molecule `O=C(CC1CC2CCC1C2)Nn1nc(C(=O)Nc2ccc(Cl)cc2)c2ccccc2c1=O` (racemic) [Example 108, (±)-3-{[(exo)-bicyclo[2.2.1]hept-2-ylacetyl]amino}-N-(4-chlorophenyl)-4-oxo-3,4-dihydrophthalazine-1-carboxamide] gave an EC50 of 2040 nM. Where the note is “HEK293 KCNQ2/KCNQ3 cells”, the Emax came out at 155%.

As for `CC(C)(C)OC(=O)Nc1ccc(Sc2nn(NC(=O)Cc3ccc(Cl)cc3)c(=O)c3ccccc23)cc1` [Example 103, tert-butyl{4-[(3-{[(4-chlorophenyl)acetyl]amino}-4-oxo-3,4-dihydrophthalazin-1-yl)sulfanyl]phenyl}carbamate], the Emax (HEK293 KCNQ2/KCNQ3 cells) is 76%.

`CC1CN(c2nn(NC(=O)CC(C)(C)c3ccccc3)c(=O)c3ccccc23)CC(C)O1` (stereo not shown) [Example 61, N-[4-(2,6-dimethylmorpholin-4-yl)-1-oxophthalazin-2(1H)-yl]-3-methyl-3-phenylbutanamide] returned an EC50 of 228 nM. Moreover, the Emax (HEK293 KCNQ2/KCNQ3 cells) turned out to be 123%.

As to `O=C(Cc1ccc(Cl)cc1)Nn1nc(N2CCCCC2)c2ccccc2c1=O` [Example 24, 2-(4-chlorophenyl)-N-[1-oxo-4-(piperidin-1-yl)phthalazin-2(1H)-yl]acetamide], it took 84.2 nM to reach a half-maximal effect (EC50). The Emax (HEK293 KCNQ2/KCNQ3 cells) amounted to 140%.

`COc1cc(CC(=O)Nn2nc(N3CCOCC3)c3ccccc3c2=O)cc(OC)c1` [Example 173, 2-(3,5-dimethoxyphenyl)-N-[4-(morpholin-4-yl)-1-oxophthalazin-2(1H)-yl]acetamide]: the Emax (HEK293 KCNQ2/KCNQ3 cells) amounted to 33.9%.

The molecule `O=C(CC1CC2CCC1C2)Nn1nc(S(=O)(=O)c2ccccc2)c2ccccc2c1=O` (racemic) [Example 70, (±)-2-[(exo)-bicyclo[2.2.1]hept-2-yl]-N-[1-oxo-4-(phenylsulfonyl)phthalazin-2(1H)-yl]acetamide] displayed an EC50 of 13.1 nM. Under “HEK293 KCNQ2/KCNQ3 cells”, the Emax amounted to 179%.

Regarding `O=C(Cc1ccc(OCc2ccccc2)cc1)Nn1nc(N2CCOCC2)c2ccccc2c1=O` [Example 164, 2-[4-(benzyloxy)phenyl]-N-[4-(morpholin-4-yl)-1-oxophthalazin-2(1H)-yl]acetamide], the Emax (HEK293 KCNQ2/KCNQ3 cells) was found to be 22%.

`O=C(C[C@@H]1C[C@@H]2C=C[C@H]1C2)Nn1nc(-c2cccs2)c2ccccc2c1=O` [Example 13, 2-[(1S,2S,4S)-bicyclo[2.2.1]hept-5-en-2-yl]-N-[1-oxo-4-(thiophen-2-yl)phthalazin-2(1H)-yl]acetamide]: the midpoint of the response, the EC50, lay at 131 nM. Further, for the setting “HEK293 KCNQ2/KCNQ3 cells”, the Emax was determined as 138%.

Take `Cc1ccc(S(=O)(=O)NCc2nn(NC(=O)Cc3ccc(Cl)cc3)c(=O)c3ccccc23)cc1` [Example 78, 2-(4-chlorophenyl)-N-[4-({[(4-methylphenyl)sulfonyl]amino}methyl)-1-oxophthalazin-2(1H)-yl]acetamide]: a half-maximal effect (EC50) was put at 9490 nM. The Emax (HEK293 KCNQ2/KCNQ3 cells) is 44.1%.

Turning to `CC(C)[C@H]1CC[C@H](C)C[C@@H]1OC(=O)NCc1nn(NC(=O)Cc2ccc(Cl)cc2)c(=O)c2ccccc12` [Example 186, (1S,2R,5S)-5-methyl-2-(propan-2-yl)cyclohexyl[(3-{[(4-chlorophenyl)acetyl]amino}-4-oxo-3,4-dihydrophthalazin-1-yl)methyl]carbamate], the “% MAX” value (maximum response relative to the response of 10 μM retigabine (set at 100%), HEK293 KCNQ2/KCNQ3 cells) is recorded as 11.8%.

For `O=C(Cc1ccccc1F)Nn1nc(N2CCOCC2)c2ccccc2c1=O` [Example 148, 2-(2-fluorophenyl)-N-[4-(morpholin-4-yl)-1-oxophthalazin-2(1H)-yl]acetamide], the Emax (HEK293 KCNQ2/KCNQ3 cells) was found to be 18.7%.

In the case of `O=C(Cc1ccc(Cl)cc1)Nn1nc(-c2ccc(Cl)nc2)c2ccccc2c1=O` [Example 5, 2-(4-chlorophenyl)-N-[4-(6-chloropyridin-3-yl)-1-oxophthalazin-2(1H)-yl]acetamide], the response was half-maximal at 470 nM (EC50). In addition, where the note is “HEK293 KCNQ2/KCNQ3 cells”, the Emax was found to be 85.2%.
